{
  "source": "paper PMC9950431",
  "about": "“A bivalent remipede toxin promotes calcium release via ryanodine receptor activation” (Nature Communications, 2023)",
  "key": {"[1]": {"system": "RyR2", "test": "Single channel electrophysiology of RyR2 channels inserted into lipid bilayers (exposure to peptide)", "format": "biochemical, sheep (cardiac SR)", "protocol": "Cardiac SR was prepared from mature female crossbred sheep hearts, and skeletal SR vesicles were isolated from the back and leg muscles of mature female New Zealand white rabbits[29],[54] with approval from the ANU Animal Experiment Ethics Committee Protocol Number A2015/35. […] Solutions for vesicle incorporation contained (mM): cis 230 caesium methanesulfonate (CsMS); 20 CsCl; 1 CaCl2 and 10 […] (TES) pH 7.4 and trans 30 CsMS; 20 CsCl; 1 CaCl2 10 TES; pH 7.4. […] Following incorporation, 200 mM CsMS was added to the trans solution and the cis solution exchanged with recording solution containing (mM): 230 CsMS; 20 CsCl; 0.001 CaCl2;10 TES and pH 7.4, with [Ca^2+] set by a [BAPTA] determined using a Ca^2+ electrode. The cytoplasmic and luminal solutions contained 1 μM and 1 mM Ca^2+ respectively, with symmetrical 250/250 mM CsMS. Bilayer voltage was switched between +40 mV and −40 mV (cytoplasmic voltage relative to grounded luminal solution) every 30 s. The activity of the RyR channels used here included 1 µM Ca^2+ in the cytoplasmic solution and 1 mM Ca^2+ in the luminal solution[29],[55]. Electrophysiology experiments were analysed using Channel 2 (P.W. Gage, M. Smith, Australian National University) and Channel 3 (N.W. Laver, University of Newcastle, Australia) software, available from the authors upon request. Statistical analyses were performed using Microsoft Excel (Office 365). […] Following most incorporation events, a single channel only was active in the bilayer and channel open probability (Po), mean open time (To), mean closed time (Tc) and open event frequency (Fo) were measured. When 2–4 channels were active in a bilayer, PO was approximated from the fractional mean current (I’F), i.e., mean current divided by maximum current. I’F is equal to PO in a single channel and indicates the average PO of multiple channels in a bilayer. […] Experiments at UN also included a minority of multi-channel experiments. The bilayer rigs, solution composition, source of channels, data acquisition and analyses methods were all identical.\nStatistical analysis of single channel data was performed using Excel spreadsheets and embedded Students t-test functions or a sign test as indicated in the graphs in Figs. 1 and 3."}, "[2]": {"system": "RyR2", "test": "Washout (reversibility/avidity) single channel experiments, RyR2", "format": "biochemical, sheep (cardiac SR)", "conditions": "10 nM and 1 μM", "protocol": "Cardiac SR was prepared from mature female crossbred sheep hearts, and skeletal SR vesicles were isolated from the back and leg muscles of mature female New Zealand white rabbits[29],[54] with approval from the ANU Animal Experiment Ethics Committee Protocol Number A2015/35. […] Solutions for vesicle incorporation contained (mM): cis 230 caesium methanesulfonate (CsMS); 20 CsCl; 1 CaCl2 and 10 […] (TES) pH 7.4 and trans 30 CsMS; 20 CsCl; 1 CaCl2 10 TES; pH 7.4. SR vesicles routinely incorporated with the cytoplasmic surface of the SR and RyR facing the cis chamber. Following incorporation, 200 mM CsMS was added to the trans solution and the cis solution exchanged with recording solution containing (mM): 230 CsMS; 20 CsCl; 0.001 CaCl2;10 TES and pH 7.4, with [Ca^2+] set by a [BAPTA] determined using a Ca^2+ electrode. […] Electrophysiology experiments were analysed using Channel 2 (P.W. Gage, M. Smith, Australian National University) and Channel 3 (N.W. Laver, University of Newcastle, Australia) software, available from the authors upon request. […] Following most incorporation events, a single channel only was active in the bilayer and channel open probability (Po), mean open time (To), mean closed time (Tc) and open event frequency (Fo) were measured. […] In all experiments control channel activity was recorded for 3 to 5 min before exposure to the test compound. […]"}},
  "data": [
    {"substance": "φ-Xibalbin3-Xt3a", "values": [
      {"measurement": "channel activity during exposure", "setting": "[1]", "value": "no significant change in activity during exposure to the toxin"},
      {"measurement": "channel activity", "setting": "[1]; 1 nM and 10 nM", "value": "weak trend towards increased activity"},
      {"measurement": "openings to the maximum conductance", "setting": "[1]; 1 nM to 1 μM", "value": "did not show any consistent changes in openings to the maximum conductance"},
      {"measurement": "substate level, % of maximum conductance", "setting": "[1]; 10 nM Xt3a, −40 mV, prolonged gating to substate levels", "value": "< 50", "unit": "%"},
      {"measurement": "channel activity during washout", "setting": "[2]", "value": "activity did appear to increase somewhat during washout"}
    ]}
  ]
}
